Test results: US4472387A, “Pharmaceutical compositions capable of increasing cerebral serotonin concentration” (Panmedica S.A., priority 1981, dated 1984)
Counter-ions that a name gives are not always drawn.

How the values were obtained:
[1] = tested on: blood levels of 5-HTP and 5-hydroxyindolacetic acid (5-HIAA); assay: Clinical results: blood levels of 5-HTP and 5-HIAA; type: in vivo; conditions: for blood levels of 5-HTP / blood levels of 5-hydroxyindolacetic acid (5-HIAA): clinical results; for blood levels of 5-hydroxyindolacetic acid (5-HIAA): principal metabolite of serotonin
From the text: In interpreting the clinical results of these remarkable medicaments, the applicants have observed that a complex of inosine with 5-HTP, particularly a complex of inosine with (L)-5-HTP, triples the blood levels of 5-HTP and 5-hydroxyindolacetic acid (5-HIAA), the principal metabolite of serotonin.

mice = assay: Toxicity, LD50 per os/mice; type: in vivo
From the text: (§1) The toxicities of the salts and the complexes of 5-HTP according to the present invention are very low as witnessed by the LD50 's per os/mice assembled in Table 2 below: […]

[2] = Toxicity, LD50 per os/mice; type: in vivo; conditions: mouse, in vivo, po, mice
From the text: as §1

[3] = tested on: cerebral metabolism of serotonin; assay: Percent increase in cerebral endogenic level of 5-HTP, 5-HT and 5-HIAA in the rat after intragastric administration; type: in vivo; conditions: 1 hour
Description: This study, carried out in the rat, determined the efficacy of the compositions according to the present invention on the cerebral metabolism of serotonin and established the potentiation of the serotoninogenic effect with respect to the reference (L)-5-HTP. (Purine, pyrimidine, and pyridine bases are, of themselves, entirely devoid of this activity.)
The animals were male adult rats of the OFA stain weighing 160 to 180 g. They were subjected to an alternating light cycle of 12 hours of light and 12 hours of darkness.
The various derivatives according to the invention were administered in distilled water intragastically at doses of 10, 25, and 50 mg/kg. After one hour, the rats were decapitated; and the contents of 5-hydroxytryptamine (5-HT), of 5-HIAA, and of 5-hydroxytryptophane in the brains were determined by the methods published by G. Curzon and Cool, [Brit. J. Pharmaco., 39, 653 (1970)].
They represent the percentage increase of cerebral endogenic levels at 10, 25, 50 mg/kg of the pure (L)-5-HTP (control) and of compositions according to the present invention for a given batch of control rats.

[4] = prolonged administration of high doses; cited from earlier work
cerebral serotonin = conditions: 5-HTP alone; cited from earlier work
[5] = tested on: receptors of benzodiazepines; conditions: P. Skolnick, 1979; cited from earlier work

NC(Cc1c[nH]c2ccc(O)cc12)C(=O)O.O=c1[nH]cnc2c1ncn2C1OC(CO)C(O)C1O (stereo not shown) [complex of inosine with 5-HTP]
blood levels of 5-HTP [1]: triples | blood levels of 5-hydroxyindolacetic acid (5-HIAA) [1]: triples

N[C@@H](Cc1c[nH]c2ccc(O)cc12)C(=O)O [Example 12, CAFFEINE SALT OF (L)-5-HYDROXYTRYPTOPHANE]
LD50 per os (mice): > 2000 mg/kg

N[C@@H](Cc1c[nH]c2ccc(O)cc12)C(=O)O [Example 10, NI[…] OF (L)-5-HYDROXYTRYPTOPHANE]
LD50 [2]: > 2000 mg/kg

N[C@@H](Cc1c[nH]c2ccc(O)cc12)C(=O)O [Example 4, THEOPHYLLINE SALT OF (L)-5-HYDROXYTRYPTOPHANE]
solubility (Aqueous solubility; water): 3.5 mg/mL | Percent increase in cerebral endogenic level of 5-HIAA ([3]; 10 mg/kg): 85% | Percent increase in cerebral endogenic level of 5-Ht + 5-HIAA ([3]; 10 mg/kg): 75% | Percent increase in cerebral endogenic level of (L)-5-HTP ([3]; 10 mg/kg): 55% | Percent increase in cerebral endogenic level of 5-HIAA ([3]; 25 mg/kg): 270% | Percent increase in cerebral endogenic level of 5-HT ([3]; 25 mg/kg): 25% | Percent increase in cerebral endogenic level of 5-Ht + 5-HIAA ([3]; 25 mg/kg): 150% | Percent increase in cerebral endogenic level of (L)-5-HTP ([3]; 25 mg/kg): 1200% | Percent increase in cerebral endogenic level of 5-HIAA ([3]; 50 mg/kg): 870% | Percent increase in cerebral endogenic level of 5-HT ([3]; 50 mg/kg): 35% | Percent increase in cerebral endogenic level of 5-Ht + 5-HIAA ([3]; 50 mg/kg): 490% | Percent increase in cerebral endogenic level of (L)-5-HTP ([3]; 50 mg/kg): 1710% | LD50 per os (mice): 1000 mg/kg

N[C@@H](Cc1c[nH]c2ccc(O)cc12)C(=O)O [Example 5-HTP, 5-hydroxytryptophane]
renal lesions [4]: often results in renal lesions | decarboxylation at the peripheral level (cerebral serotonin): considerable decarboxylation | hepatic catabolism (cerebral serotonin): high hepatic catabolism | overall yield of cerebral serotonin synthesized with respect to the amount of 5-hydroxytryptophane administered (cerebral serotonin): very low | passage of the gastrointestinal and hematoencephalic barriers (cerebral serotonin): mediocre passage

N[C@@H](Cc1c[nH]c2ccc(O)cc12)C(=O)O.O.O=c1[nH]cnc2c1ncn2[C@@H]1O[C@H](CO)[C@@H](O)[C@H]1O [Example 1, (L)-5-HTP INOSINATE]
Percent increase in cerebral endogenic level of 5-HIAA ([3]; 10 mg/kg): 165% | Percent increase in cerebral endogenic level of 5-HT ([3]; 10 mg/kg): 2% | Percent increase in cerebral endogenic level of 5-Ht + 5-HIAA ([3]; 10 mg/kg): 100% | Percent increase in cerebral endogenic level of (L)-5-HTP ([3]; 10 mg/kg): 135% | Percent increase in cerebral endogenic level of 5-HIAA ([3]; 25 mg/kg): 290% | Percent increase in cerebral endogenic level of 5-HT ([3]; 25 mg/kg): 100% | Percent increase in cerebral endogenic level of 5-Ht + 5-HIAA ([3]; 25 mg/kg): 195% | Percent increase in cerebral endogenic level of (L)-5-HTP ([3]; 25 mg/kg): 1755% | Percent increase in cerebral endogenic level of 5-HIAA ([3]; 50 mg/kg): 1010% | Percent increase in cerebral endogenic level of 5-HT ([3]; 50 mg/kg): 70% | Percent increase in cerebral endogenic level of 5-Ht + 5-HIAA ([3]; 50 mg/kg): 545% | Percent increase in cerebral endogenic level of (L)-5-HTP ([3]; 50 mg/kg): 2665% | blood levels of 5-HTP [1]: triples | blood levels of 5-hydroxyindolacetic acid (5-HIAA) [1]: triples

EQU[…] OF (L)-5-HYDROXYT[…] OF ALLOPURINOL [Example 5]
Percent increase in cerebral endogenic level of 5-HIAA ([3]; 10 mg/kg): 90% | Percent increase in cerebral endogenic level of 5-HT ([3]; 10 mg/kg): 15% | Percent increase in cerebral endogenic level of 5-Ht + 5-HIAA ([3]; 10 mg/kg): 60% | Percent increase in cerebral endogenic level of (L)-5-HTP ([3]; 10 mg/kg): 108% | Percent increase in cerebral endogenic level of 5-HIAA ([3]; 25 mg/kg): 100% | Percent increase in cerebral endogenic level of 5-HT ([3]; 25 mg/kg): 70% | Percent increase in cerebral endogenic level of 5-Ht + 5-HIAA ([3]; 25 mg/kg): 85% | Percent increase in cerebral endogenic level of (L)-5-HTP ([3]; 25 mg/kg): 830% | Percent increase in cerebral endogenic level of 5-HIAA ([3]; 50 mg/kg): 765% | Percent increase in cerebral endogenic level of 5-HT ([3]; 50 mg/kg): 115% | Percent increase in cerebral endogenic level of 5-Ht + 5-HIAA ([3]; 50 mg/kg): 475% | Percent increase in cerebral endogenic level of (L)-5-HTP ([3]; 50 mg/kg): 2100% | LD50 per os (mice): 1000 mg/kg

N[C@@H](Cc1c[nH]c2ccc(O)cc12)C(=O)O [(L)-5-HTP pure, (L)-5-hydroxytryptophane, reference compound]
Percent increase in cerebral endogenic level of 5-HIAA ([3]; 10 mg/kg): 40% | Percent increase in cerebral endogenic level of 5-HT ([3]; 10 mg/kg): 10% | Percent increase in cerebral endogenic level of 5-Ht + 5-HIAA ([3]; 10 mg/kg): 55% | Percent increase in cerebral endogenic level of (L)-5-HTP ([3]; 10 mg/kg): 120% | Percent increase in cerebral endogenic level of 5-HIAA ([3]; 25 mg/kg): 110% | Percent increase in cerebral endogenic level of 5-HT ([3]; 25 mg/kg): 25% | Percent increase in cerebral endogenic level of 5-Ht + 5-HIAA ([3]; 25 mg/kg): 110% | Percent increase in cerebral endogenic level of (L)-5-HTP ([3]; 25 mg/kg): 260% | Percent increase in cerebral endogenic level of 5-HIAA ([3]; 50 mg/kg): 300% | Percent increase in cerebral endogenic level of 5-HT ([3]; 50 mg/kg): 35% | Percent increase in cerebral endogenic level of 5-Ht + 5-HIAA ([3]; 50 mg/kg): 180% | Percent increase in cerebral endogenic level of (L)-5-HTP ([3]; 50 mg/kg): 650%

O=c1[nH]cnc2nc[nH]c12 [hypoxanthine, 1,7-dihydropurine-6-one]
endogenous ligands of receptors of benzodiazepines [5]: can constitute endogenous ligands of receptors of benzodiazepines

NC(Cc1c[nH]c2ccc(O)cc12)C(=O)O.O.O=c1[nH]cnc2c1ncn2[C@@H]1O[C@H](CO)[C@@H](O)[C@H]1O (racemic) [Example 2, (DL) 5-HYDROXYTRYPTOPHANE INOSINATE]
Percent increase in cerebral endogenic level of 5-HIAA ([3]; 10 mg/kg): 135% | Percent increase in cerebral endogenic level of 5-HT ([3]; 10 mg/kg): 2% | Percent increase in cerebral endogenic level of 5-Ht + 5-HIAA ([3]; 10 mg/kg): 85% | Percent increase in cerebral endogenic level of (L)-5-HTP ([3]; 10 mg/kg): 110% | Percent increase in cerebral endogenic level of 5-HIAA ([3]; 25 mg/kg): 345% | Percent increase in cerebral endogenic level of 5-HT ([3]; 25 mg/kg): 80% | Percent increase in cerebral endogenic level of 5-Ht + 5-HIAA ([3]; 25 mg/kg): 220% | Percent increase in cerebral endogenic level of (L)-5-HTP ([3]; 25 mg/kg): 1665% | Percent increase in cerebral endogenic level of 5-HIAA ([3]; 50 mg/kg): 1190% | Percent increase in cerebral endogenic level of 5-HT ([3]; 50 mg/kg): 110% | Percent increase in cerebral endogenic level of 5-Ht + 5-HIAA ([3]; 50 mg/kg): 700% | Percent increase in cerebral endogenic level of (L)-5-HTP ([3]; 50 mg/kg): 1955%

N[C@H](Cc1c[nH]c2ccc(O)cc12)C(=O)O [(D)-5-HTP, reference compound]
activity ([1]; pharmacological response): almost entire absence of activity

Cc1ncc(CO)c(CO)c1O.Cl.N[C@@H](Cc1c[nH]c2ccc(O)cc12)C(=O)O [Example 7, EQUIMOLECULAR COMPLEX OF PYRIDOXINE WITH (L)-5-HYDROXYTRYPTOPHANE]
Percent increase in cerebral endogenic level of 5-HIAA ([3]; 10 mg/kg): 35% | Percent increase in cerebral endogenic level of 5-HT ([3]; 10 mg/kg): 20% | Percent increase in cerebral endogenic level of 5-Ht + 5-HIAA ([3]; 10 mg/kg): 40% | Percent increase in cerebral endogenic level of (L)-5-HTP ([3]; 10 mg/kg): 190% | Percent increase in cerebral endogenic level of 5-HIAA ([3]; 25 mg/kg): 230% | Percent increase in cerebral endogenic level of 5-HT ([3]; 25 mg/kg): 80% | Percent increase in cerebral endogenic level of 5-Ht + 5-HIAA ([3]; 25 mg/kg): 165% | Percent increase in cerebral endogenic level of (L)-5-HTP ([3]; 25 mg/kg): 420% | Percent increase in cerebral endogenic level of 5-HIAA ([3]; 50 mg/kg): 755% | Percent increase in cerebral endogenic level of 5-HT ([3]; 50 mg/kg): 25% | Percent increase in cerebral endogenic level of 5-Ht + 5-HIAA ([3]; 50 mg/kg): 390% | Percent increase in cerebral endogenic level of (L)-5-HTP ([3]; 50 mg/kg): 2500%

O=c1[nH]cnc2c1ncn2[C@@H]1O[C@H](CO)[C@@H](O)[C@H]1O [inosine, 9-β-D-ribofuranosylhypoxanthine]
endogenous ligands of receptors of benzodiazepines [5]: can constitute endogenous ligands of receptors of benzodiazepines

EQU[…] OF […] (DL)-5-HYDROXYTRYPTOPHANE [Example 6]
solubility in water (Aqueous solubility; in words): very soluble in water | Percent increase in cerebral endogenic level of 5-HIAA ([3]; 10 mg/kg): 20% | Percent increase in cerebral endogenic level of 5-Ht + 5-HIAA ([3]; 10 mg/kg): 8% | Percent increase in cerebral endogenic level of (L)-5-HTP ([3]; 10 mg/kg): 115% | Percent increase in cerebral endogenic level of 5-HIAA ([3]; 25 mg/kg): 90% | Percent increase in cerebral endogenic level of 5-HT ([3]; 25 mg/kg): 30% | Percent increase in cerebral endogenic level of 5-Ht + 5-HIAA ([3]; 25 mg/kg): 65% | Percent increase in cerebral endogenic level of (L)-5-HTP ([3]; 25 mg/kg): 230% | Percent increase in cerebral endogenic level of 5-HIAA ([3]; 50 mg/kg): 360% | Percent increase in cerebral endogenic level of 5-HT ([3]; 50 mg/kg): 60% | Percent increase in cerebral endogenic level of 5-Ht + 5-HIAA ([3]; 50 mg/kg): 210% | Percent increase in cerebral endogenic level of (L)-5-HTP ([3]; 50 mg/kg): 1575%
